US10752587B2, “Homobispiperidinyl derivatives as liver X receptor beta agonists, compositions and their use” (Merck Sharp & Dohme Corp., priority 2015, dated 2020)
Like-named read-outs stand apart in the source and are kept apart here.

Key:
[1] = target: T1, glutathione-S-transferase (GST) tagged LXRbeta LBD (ligand binding domain) (Homo sapiens, UniProt P55055); assay: LanthaScreen TR-FRET Liver X Receptor Coactivator Assay, co-activator recruitment to LXRbeta LBD; type: biochemical
T1 construct: purchased Invitrogen pv4658.pps
T1 sequence (P55055 222-460 limits assumed): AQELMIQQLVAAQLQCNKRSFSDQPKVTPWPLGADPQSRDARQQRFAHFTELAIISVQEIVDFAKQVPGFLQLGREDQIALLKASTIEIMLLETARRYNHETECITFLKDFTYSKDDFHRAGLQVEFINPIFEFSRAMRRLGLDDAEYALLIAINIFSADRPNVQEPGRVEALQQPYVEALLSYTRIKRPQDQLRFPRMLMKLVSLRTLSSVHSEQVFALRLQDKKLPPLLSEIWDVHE
Protocol: (§1) Potency (Inflection Point, IP) and efficacy (Emax) are evaluated via compound-induced co-activator recruitment to glutathione-S-transferase (GST) tagged LXRbeta and LXRalpha LBD (ligand binding domain) proteins in relation to reference dual agonist compound T0901317 (N-(2,2,2-Trifluoroethyl)-N-[4-[2,2,2-trifluoro-1-hydroxy-1-(trifluoromethyl)ethyl] phenyl] benzenesulfonamide) using the LanthaScreen™ TR-FRET Liver X Receptor Coactivator Assays according to manufacturer's instructions (Invitrogen catalog number pv4658.pps and pv4655). While running the LanthaScreen™ TR-FRET Liver X Receptor Coactivator Assay, LXR alpha-LBD or LXR beta-LBD was added to ligand test compounds followed by addition of a mixture of a fluorescein-labelled coactivator peptide and terbium-conjugated anti-GST antibody. After an incubation period at room temperature, TR-FRET (time-resolved fluorescence resonance energy transfer) was measured using a filter-based instrument capable of TR-FRET, e.g. PerkinElmer Envision.

[2] = target: T2, glutathione-S-transferase (GST) tagged LXRalpha LBD (ligand binding domain) (Homo sapiens, UniProt Q13133); assay: LanthaScreen TR-FRET Liver X Receptor Coactivator Assay, co-activator recruitment to LXRalpha LBD; type: biochemical
T2 construct: purchased Invitrogen pv4655
T2 sequence (Q13133 209-447 limits assumed): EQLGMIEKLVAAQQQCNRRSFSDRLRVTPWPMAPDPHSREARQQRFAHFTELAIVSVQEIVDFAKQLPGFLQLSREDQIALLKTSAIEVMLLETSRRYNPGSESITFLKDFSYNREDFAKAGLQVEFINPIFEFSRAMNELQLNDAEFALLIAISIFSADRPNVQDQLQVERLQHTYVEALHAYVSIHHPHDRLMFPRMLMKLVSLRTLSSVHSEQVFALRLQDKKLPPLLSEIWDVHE
Protocol: as §1

[3] = efficacy at max dose, in relation to reference dual agonist T0901317, read-out: LXR beta Activity @ max dose (%)
[4] = potency (Inflection Point, IP), co-activator recruitment to LXRbeta LBD, in relation to T0901317, read-out: LXR beta IP
[5] = efficacy at max dose, in relation to reference dual agonist T0901317, read-out: LXR alpha Activity @ max dose (%)
[6] = potency (Inflection Point, IP), co-activator recruitment to LXRalpha LBD, in relation to T0901317
[7] = potency (Inflection Point, IP), co-activator recruitment to LXRalpha LBD, in relation to T0901317, read-out: LXR alpha IP
[8] = efficacy at max dose, in relation to reference dual agonist T0901317

Emax [1, 3] [%]	EC50 [1, 4] [nM]	Emax [2, 5] [%]	LXR alpha IP (nM) [2, 6]	EC50 [2, 7] [nM]	Structure (SMILES)	other results
15	598	0	NO IP		CN(C)C(=O)c1ccc(N2CCC(CC3CCN(C(=O)C(O)(c4ccc(C(F)(F)F)cc4)C(F)(F)F)CC3)CC2)cc1Cl (centres unmarked) [Example 2-16, 2-chloro-N,N-dimethyl-4-{4-[(1-{3,3,3-trifluoro-2-hydroxy-2-[4-(trifluoromethyl)phenyl]propanoyl}piperidin-4-yl)methyl]piperidin-1-yl} benzamide]	
69	7	23		252	CN(C)C(=O)c1ccc(N2CCC(CC3CCN(C(=O)[C@](O)(c4cccc(C(F)(F)F)c4)C(F)(F)F)CC3)CC2)nc1Cl [Example 7-87, 2-chloro-N,N-dimethyl-6-{4-[(1-{(2R)-3,3,3-trifluoro-2-hydroxy-2-[3-(trifluoromethyl)phenyl]propanoyl}piperidin-4-yl)methyl]piperidin-1-yl}pyridine-3-carboxamide]	
38	502	12	NO IP		CN(C)C(=O)c1ccc(N2CCC(CCC3CCN(C(=O)[C@](O)(c4ccccc4)C(F)(F)F)CC3)CC2)cc1Cl [Example 2-162, 2-chloro-N,N-dimethyl-4-[4-(2-{1-[(2R)-3,3,3-trifluoro-2-hydroxy-2-phenyl-propanoyl]piperidin-4-yl}ethyl)piperidin-1-yl]benzamide]	
	19			455	CNC(=O)c1ccc(N2CCC(CC3CCN(C(=O)[C@](O)(c4ccccc4)C(F)(F)F)CC3)CC2)cc1Cl [Example 7-126, 2-chloro-N-methyl-4-[4-({1-[(2R)-3,3,3-trifluoro-2-hydroxy-2-phenylpropanoyl]piperidin-4-yl}methyl)piperidin-1-yl]benzamide]	LXR beta Activity @ max dose (%) [1, 8]: 91%; LXR alpha Activity @ max dose (%) [2, 8]: 46%
54	73	4	NO IP		CCOc1cccc([C@@](O)(C(=O)N2CCC(CC3CCN(c4ccc(C(=O)N(C)C)cc4)CC3)CC2)C(F)(F)F)c1 [Example 2-145, 4-[4-({1-[(2R)-2-(3-ethoxy-phenyl)-3,3,3-trifluoro-2-hydroxy-propanoyl]piperidin-4-yl}methyl)piperidin-1-yl]-N,N-dimethyl-benzamide]	
20	8	0	NO IP		CN(C)C(=O)c1ccc(N2CCC(CC3CCN(C(=O)[C@](O)(c4cccc(N(C)C)c4)C(F)(F)F)CC3)CC2)cc1Cl [Example 2-98]	

Continued, molecule first:

Structure (SMILES)	Emax [1, 3] [%]	EC50 [1, 4] [nM]	Emax [2, 5] [%]	LXR alpha IP (nM) [2, 6]	EC50 [2, 7] [nM]	other results
CN(C)C(=O)c1ccc(N2CCC(CC3(C)CCN(C(=O)[C@](O)(c4cccc(OC(F)(F)F)c4)C(F)(F)F)CC3)CC2)cc1Cl [Example 2-51, 2-chloro-N,N-dimethyl-4-{4-[(4-methyl-1-{(2R)-3,3,3-trifluoro-2-hydroxy-2-[3-(trifluoro-methoxy)phenyl]propanoyl}piperidin-4-yl)methyl]piperidin-1-yl}benzamide]	57	32	11	NO IP		
O=C(c1ccc(N2CCC(CC3CCN(C(=O)[C@](O)(c4cc(Cl)cc(Cl)c4)C(F)(F)F)CC3)CC2)cc1Cl)N1CC[C@@H](O)C1 [Example 4-22, (3R)-1-({2-chloro-4-[4-({1-[(2R)-2-(3,5-dichloro-phenyl)-3,3,3-trifluoro-2-hydroxypropanoyl]piperidin-4-yl}methyl)piperidin-1-yl]phenyl}carbonyl) pyrrolidin-3-ol]	38	35	0	NO IP		
Cc1cc(F)cc(C(O)(C(=O)N2CCC(CC3CCN(c4ccc(C(=O)N(C)C)c(Cl)c4)CC3)CC2)C(F)(F)F)c1 (centres unmarked) [Example 2-42, 2-chloro-N,N-dimethyl-4-[4-({1-[3,3,3-trifluoro-2-(3-fluoro-5-methylphenyl)-2-hydroxy-propanoyl]piperidin-4-yl}methyl)piperidin-1-yl]benzamide]	76	12	25		162	
COc1cccc(S(=O)(=O)N2CC(CC3CCN(c4ccc(C(=O)N(C)C)c(Cl)n4)CC3)C2)c1 [Example 14-2, 2-chloro-6-[4-({1-[(3-methoxyphenyl)-sulfonyl]azetidin-3-yl}methyl)piperidin-1-yl}-N,N-dimethyl-pyridine-3-carboxamide]						EC50 ([1]; co-activator recruitment to GST-LXRbeta LBD, TR-FRET, read-out: LXR beta IP (Inflection Point, potency)): 50 nM; Emax ([1]; efficacy in relation to reference dual agonist T0901317, read-out: LXR beta Activity @ max dose): 93%; EC50 ([2]; co-activator recruitment to GST-LXRalpha LBD, TR-FRET, read-out: LXR alpha IP (Inflection Point, potency)): 10300 nM; Emax ([2]; efficacy in relation to reference dual agonist T0901317, read-out: LXR alpha Activity @ max dose): 45%
CN(C)C(=O)c1ccc(N2CCC(CC3CCN(C(=O)[C@](O)(c4ccccc4)C(F)(F)C(F)(F)F)CC3)CC2)nc1Cl [Example 7-60, 2-chloro-N,N-dimethyl-6-[4-({1-[(2R)-3,3,4,4,4-pentafluoro-2-hydroxy-2-phenylbutanoyl]piperidin-4-yl}methyl)piperidin-1-yl]pyridine-3-carboxamide]	153	7	60		148	
CN(C)C(=O)c1ccc(N2CCC(CC3CCN(C(=O)C(O)(c4cc(F)cc(Cl)c4)C(F)(F)F)CC3)CC2)nc1Cl (centres unmarked) [Example 7-109, 2-chloro-6-[4-({1-[2-(3-chloro-5-fluorophenyl)-3,3,3-trifluoro-2-hydroxypropanoyl]piperidin-4-yl}methyl)piperidin-1-yl]-N,N-dimethyl-pyridine-3-carboxamide]	107	4	52		51	
CNC(=O)c1ccc(N2CCC(CC3CCN(C(=O)C4(c5ccccc5F)CCCC4)CC3)CC2)cc1Cl [Example 7-34, 2-chloro-4-{4-[(1-{[1-(2-fluorophenyl)cyclopentyl]carbonyl}piperidin-4-yl)methyl]piperidin-1-yl}-N-methylbenzamide]	82	169	19		2190	
CN(C)C(=O)c1ccc(N2CCC(OC3CCN(C(=O)C(F)(F)F)CC3)CC2)cc1Cl [Example 2-29, 2-chloro-N,N-dimethyl-4-(4-{[1-(trifluoro-acetyl)piperidin-4-yl]oxy}piperidin-1-yl)benzamide]	65	3790	25	NO IP		
CNC(=O)c1ccc(N2CCC(SC3CCN(C(=O)[C@](O)(c4cccc(OC)c4)C(F)(F)F)CC3)CC2)nc1Cl [Example 11-1, (R)-2-chloro-N-methyl-6-(4-(1-(3,3,3-trifluoro-2-hydroxy-2-(3-methoxyphenyl)propanoyl)piperidin-4-ylthio)piperidin-1-yl)nicotinamide]			17	NO IP		EC50 ([1]; LXR beta IP (nM), potency (Inflection Point, IP), co-activator recruitment to LXRbeta LBD, in relation to T0901317): 17 nM; Emax ([1]; read-out: LXR beta Activity @ max dose (%)): 93%
COc1ccccc1C1(C(=O)N2CCC(CC3CCN(c4ccc(C(=O)N(C)C)c(Cl)n4)CC3)CC2)CCC1 [Example 7-57, 2-chloro-6-{4-[(1-{[1-(2-methoxyphenyl)cyclobutyl]carbonyl}piperidin-4-yl)methyl]piperidin-1-yl}-N,N-dimethylpyridine-3-carboxamide]	123	16	39		438	
COc1cccc([C@@](O)(C(=O)N2CCC(CC3CCN(c4ccc(C(=O)N(C)C)c(Cl)c4)CC3)CC2)C(C)C)c1 [Example 2-115, 2-chloro-4-[4-({1-[(2R)-2-hydroxy-2-(3-methoxy-phenyl)-3-methyl-butanoyl]piperidin-4-yl}methyl)piperidin-1-yl]-N,N-dimethyl-benzamide]	30	53	0	NO IP		
